One data set deals with HepG2. Briefly: Antiproliferative activity against human HepG2 cells assessed as cell viability measured after 48 hrs incubation by MTT assay. Type of data set: functional, cell-based. The note with it: HepG2, 48 h. (In general: Tetrazolium dyes change colour on reduction, which living cells bring about.)
A short description of data set [1]: Antiproliferative activity against human MCF-10A cells assessed as cell viability measured after 48 hrs incubation by MTT assay. Type of data set: toxicity, cell-based.
The subject of another data set is A549. Kind of data set: Antiproliferative activity against human A549 cells assessed as cell viability measured after 48 hrs incubation by MTT assay. The settings on record: A549, 48 h. Type of data set: functional, cell-based.
The next data set concerns MCF7. Briefly: Antiproliferative activity against human MCF7 cells assessed as cell viability measured after 48 hrs incubation by MTT assay. Type of data set: functional, cell-based. The note with it: MCF7, 48 h.
The nature of data set [2]: Selectivity index, ratio of IC50 for human MCF-10A cells to IC50 for human MCF7 cells. Type of data set: toxicity. The settings on record: MCF-10A cells and MCF7 cells, read-out: Selectivity Index.

The IC50 is the concentration that inhibits the measured activity by half.

For `COc1ccc(/C=C2\SC(=O)N(CC(=O)NCCNC(=O)O[C@H]3CC[C@]4(C)[C@H]5CC[C@]6(C)[C@@H]([C@H](C)/C=C/[C@H](C)C(C)C)CC[C@H]6[C@@]56C=C[C@]4(C3)OO6)C2=O)cc1OC`, the IC50 is 6.18 µM in the data set on HepG2, 8.54 µM with A549 and 5.33 µM in the data set with MCF7. Further, the IC50 at 48 h in data set [1] was 20.8 µM. Moreover, the selectivity ratio in data set [2] amounted to 3.89.
`CC(C)[C@@H](C)/C=C/[C@@H](C)[C@H]1CC[C@@H]2[C@]1(C)CC[C@H]1[C@]23C=C[C@]2(C[C@@H](OC(=O)NCCNC(=O)CN4C(=O)S/C(=C\c5ccc(Br)cc5)C4=O)CC[C@]12C)OO3`: the IC50 in the data set on HepG2 is 7.34 µM; in the data set with A549, 7.9 µM; with MCF7 it was 4.39 µM. The IC50 at 48 h in data set [1] turned out to be 45.3 µM. In addition, in data set [2], the selectivity ratio was determined as 10.3.
In the same order, the values of `Cc1ccc(/C=C2\SC(=O)N(CC(=O)NCCNC(=O)O[C@H]3CC[C@]4(C)[C@H]5CC[C@]6(C)[C@@H]([C@H](C)/C=C/[C@H](C)C(C)C)CC[C@H]6[C@@]56C=C[C@]4(C3)OO6)C2=O)cc1` are 6.82 µM, 7.18 µM, 4.71 µM, 24.1 µM and 5.11.
On to `COc1ccc(/C=C2\SC(=O)N(CC(=O)NCCNC(=O)O[C@H]3CC[C@]4(C)[C@H]5CC[C@]6(C)[C@@H]([C@H](C)/C=C/[C@H](C)C(C)C)CC[C@H]6[C@@]56C=C[C@]4(C3)OO6)C2=O)c(OC)c1OC`, for which the IC50 in the data set with HepG2 worked out at 5.77 µM; with A549, 5.08 µM; in the data set with MCF7, 4.26 µM. Besides, the IC50 at 48 h in data set [1] was 30.1 µM. In data set [2], the selectivity ratio came out at 7.07.
In the case of `CC(C)[C@@H](C)/C=C/[C@@H](C)[C@H]1CC[C@@H]2[C@]1(C)CC[C@H]1[C@]23C=C[C@]2(C[C@@H](OC(=O)NCCNC(=O)CN4C(=O)S/C(=C\c5ccccc5)C4=O)CC[C@]12C)OO3`, the IC50 in the data set with HepG2 was determined as 7.95 µM; in the data set on A549, 11.4 µM; in the data set on MCF7, 6.8 µM. Besides, the IC50 at 48 h in data set [1] is 41.6 µM. The selectivity ratio in data set [2] came to 6.12.
For `CC(C)[C@@H](C)/C=C/[C@@H](C)[C@H]1CC[C@@H]2[C@]1(C)CC[C@H]1[C@]23C=C[C@]2(C[C@@H](OC(=O)N4CCN(C(=O)CN5C(=O)S/C(=C\c6ccc(Cl)cc6Cl)C5=O)CC4)CC[C@]12C)OO3`, the IC50 with HepG2 was found to be 15.6 µM; in the data set with A549 it was 11.7 µM; in the data set with MCF7 it was 12.9 µM.
Take `COc1ccc(/C=C2/SC(=O)N(CC(=O)O[C@H]3CC[C@]4(C)[C@H]5CC[C@]6(C)[C@@H]([C@H](C)/C=C/[C@H](C)C(C)C)CC[C@H]6[C@@]56C=C[C@]4(C3)OO6)C2=O)c(OC)c1OC`: the IC50 in the data set on HepG2 stood at 10.9 µM; in the data set on A549, 9.1 µM; in the data set with MCF7, 9.66 µM.
For the compound `CC(C)[C@@H](C)/C=C/[C@@H](C)[C@H]1CC[C@@H]2[C@]1(C)CC[C@H]1[C@]23C=C[C@]2(C[C@@H](OC(=O)CN4C(=O)S/C(=C/c5ccc(Cl)cc5Cl)C4=O)CC[C@]12C)OO3`, the results for the IC50 in the data set with HepG2, with A549 and with MCF7 were 13.1 µM, 11 µM and 10.2 µM, respectively.
As to `CC(C)/C=C1/SC(=O)N(CC(=O)O[C@H]2CC[C@]3(C)[C@H]4CC[C@]5(C)[C@@H]([C@H](C)/C=C/[C@H](C)C(C)C)CC[C@H]5[C@@]45C=C[C@]3(C2)OO5)C1=O`, the IC50 was 14.6 µM in the data set with HepG2, 7.65 µM in the data set on A549 and 20.4 µM with MCF7.
In the same order, the values of `CC(C)[C@@H](C)/C=C/[C@@H](C)[C@H]1CC[C@@H]2[C@]1(C)CC[C@H]1[C@]23C=C[C@]2(C[C@@H](OC(=O)N4CCN(C(=O)CN5C(=O)S/C(=C\c6ccc(Cl)cc6)C5=O)CC4)CC[C@]12C)OO3` are 9.58 µM, 5.94 µM and 8.94 µM.
`CC(C)[C@@H](C)/C=C/[C@@H](C)[C@H]1CC[C@@H]2[C@]1(C)CC[C@H]1[C@]23C=C[C@]2(C[C@@H](OC(=O)N4CCN(C(=O)CN5C(=O)S/C(=C\c6ccc(F)cc6)C5=O)CC4)CC[C@]12C)OO3`: the IC50 with HepG2 is 12 µM; in the data set on A549, 9.34 µM; in the data set with MCF7 it was 12.2 µM.
For `CC(C)[C@@H](C)/C=C/[C@@H](C)[C@H]1CC[C@@H]2[C@]1(C)CC[C@H]1[C@]23C=C[C@]2(C[C@@H](OC(=O)CN4C(=O)S/C(=C/c5ccco5)C4=O)CC[C@]12C)OO3`, the half-inhibitory concentration (IC50) was determined as 20.2 µM in the data set on HepG2, 15 µM in the data set on A549 and 21 µM in the data set with MCF7.
In the case of `CC(C)[C@@H](C)/C=C/[C@@H](C)[C@H]1CC[C@@H]2[C@]1(C)CC[C@H]1[C@]23C=C[C@]2(C[C@@H](OC(=O)N4CCN(C(=O)CN5C(=O)S/C(=C\C6CC6)C5=O)CC4)CC[C@]12C)OO3`, the half-inhibitory concentration (IC50) in the data set with HepG2 was 8.97 µM; with A549 it was 6.06 µM; in the data set on MCF7 it was 7.17 µM.
As for `COc1cccc(/C=C2\SC(=O)N(CC(=O)N3CCN(C(=O)O[C@H]4CC[C@]5(C)[C@H]6CC[C@]7(C)[C@@H]([C@H](C)/C=C/[C@H](C)C(C)C)CC[C@H]7[C@@]67C=C[C@]5(C4)OO7)CC3)C2=O)c1`, the figures for the IC50 in the data set on HepG2, in the data set on A549 and in the data set on MCF7 were 12.7 µM, 10.1 µM and 14.3 µM, respectively.
As to `CC(C)[C@@H](C)/C=C/[C@@H](C)[C@H]1CC[C@@H]2[C@]1(C)CC[C@H]1[C@]23C=C[C@]2(C[C@@H](OC(=O)N4CCN(C(=O)CN5C(=O)S/C(=C\c6ccc(Br)cc6)C5=O)CC4)CC[C@]12C)OO3`, the IC50 came out at 12.4 µM with HepG2, 5.74 µM with A549 and 10.4 µM with MCF7.
With `CC(C)[C@@H](C)/C=C/[C@@H](C)[C@H]1CC[C@@H]2[C@]1(C)CC[C@H]1[C@]23C=C[C@]2(C[C@@H](OC(=O)CN4C(=O)S/C(=C/c5ccccc5)C4=O)CC[C@]12C)OO3`, the IC50 was 17.6 µM in the data set on HepG2, 13.7 µM with A549 and 12.5 µM in the data set with MCF7.
Take `CC(C)[C@@H](C)/C=C/[C@@H](C)[C@H]1CC[C@@H]2[C@]1(C)CC[C@H]1[C@]23C=C[C@]2(C[C@@H](OC(=O)N4CCN(C(=O)CN5C(=O)S/C(=C\c6ccccc6)C5=O)CC4)CC[C@]12C)OO3`: the IC50 in the data set on HepG2 came out at 9.71 µM; with A549, 6.05 µM; in the data set on MCF7 it was 8.48 µM.
As for `COc1ccc(/C=C2\SC(=O)N(CC(=O)N3CCN(C(=O)O[C@H]4CC[C@]5(C)[C@H]6CC[C@]7(C)[C@@H]([C@H](C)/C=C/[C@H](C)C(C)C)CC[C@H]7[C@@]67C=C[C@]5(C4)OO7)CC3)C2=O)c(OC)c1OC`, the 50% inhibitory concentration (IC50) in the data set on HepG2 was found to be 9.75 µM; in the data set with A549, 5.17 µM; with MCF7, 8.96 µM.
Taken in the same sequence, the figures for `CC(C)[C@@H](C)/C=C/[C@@H](C)[C@H]1CC[C@@H]2[C@]1(C)CC[C@H]1[C@]23C=C[C@]2(C[C@@H](OC(=O)CN4C(=O)S/C(=C/c5ccccc5F)C4=O)CC[C@]12C)OO3` were 12.5 µM, 11.4 µM and 14.4 µM.
With `CC(C)[C@@H](C)/C=C/[C@@H](C)[C@H]1CC[C@@H]2[C@]1(C)CC[C@H]1[C@]23C=C[C@]2(C[C@@H](OC(=O)N4CCN(C(=O)CN5C(=O)CSC5=O)CC4)CC[C@]12C)OO3`, the results for the IC50 with HepG2, with A549 and with MCF7 were 8.97 µM, 4.82 µM and 6.37 µM, respectively.

The record behind these values is ChEMBL document CHEMBL6078657, “Thiazolidinedione-based structure modification of ergosterol peroxide provides thiazolidinedione-conjugated derivatives as potent agents against breast cancer cells through a PI3K/AKT/mTOR pathway” (Bioorg Med Chem, 2025).
